Measurements taken from the NIST ThermoML archive (doi:10.1021/je060271a).
Numbers after ± are expanded uncertainties.

Details: 303.15 K, Liquid, Vibrating tube method

Measured: mass density

CCCCCCCC(=O)OCC(COC(=O)CCCCCCC)(COC(=O)CCCCCCC)COC(=O)CCCCCCC [pentaerythritol tetraoctanoate]
961.9 ± 1.2 kg/m3: 10538 kPa | 10562 kPa | 10582 kPa | 10607 kPa | 10631 kPa | 10656 kPa | 10680 kPa | 10751 kPa | 10779 kPa | 10801 kPa
964.9 ± 1.2 kg/m3: 15616 kPa | 15669 kPa | 15728 kPa | 15758 kPa | 15786 kPa | 15840 kPa | 15869 kPa | 15894 kPa | 15923 kPa
962 ± 1.2 kg/m3: 10702 kPa | 10727 kPa | 10826 kPa | 10899 kPa
961.1 ± 1.2 kg/m3: 9132.9 kPa | 9193.9 kPa | 9250.4 kPa | 9371.4 kPa | 9435.5 kPa
960 ± 1.2 kg/m3: 7299.8 kPa | 7389.7 kPa | 7483.3 kPa | 7511.3 kPa | 7544.9 kPa
961.6 ± 1.2 kg/m3: 10037 kPa | 10067 kPa | 10092 kPa | 10122 kPa | 10152 kPa | 10177 kPa | 10270 kPa | 10403 kPa
960.6 ± 1.2 kg/m3: 8489.8 kPa
962.8 ± 1.2 kg/m3: 12086 kPa | 12118 kPa | 12150 kPa | 12183 kPa | 12208 kPa | 12274 kPa | 12307 kPa
963.6 ± 1.2 kg/m3: 13279 kPa | 13427 kPa | 13542 kPa
960.1 ± 1.2 kg/m3: 7573.7 kPa | 7608.5 kPa | 7643.5 kPa | 7673.8 kPa | 7703.3 kPa | 7806.2 kPa | 7904.9 kPa
964.4 ± 1.2 kg/m3: 14787 kPa | 14836 kPa
959.8 ± 1.2 kg/m3: 7240.6 kPa | 7273.2 kPa
965.7 ± 1.2 kg/m3: 16982 kPa | 17112 kPa | 17141 kPa | 17175 kPa | 17209 kPa
964.2 ± 1.2 kg/m3: 14512 kPa | 14647 kPa | 14737 kPa
963.2 ± 1.2 kg/m3: 12770 kPa | 12805 kPa | 12841 kPa | 12916 kPa
961.2 ± 1.2 kg/m3: 9403.3 kPa | 9467.7 kPa | 9500.5 kPa | 9527.3 kPa | 9559.2 kPa | 9592.8 kPa
962.4 ± 1.2 kg/m3: 11229 kPa | 11365 kPa | 11446 kPa | 11504 kPa | 11533 kPa | 11562 kPa | 11729 kPa
960.8 ± 1.2 kg/m3: 8676.1 kPa | 8703.6 kPa | 8802.3 kPa | 8866 kPa | 8961.2 kPa
961.5 ± 1.2 kg/m3: 9893.5 kPa | 9924.2 kPa | 9961.2 kPa | 9999 kPa | 10208 kPa
964.5 ± 1.2 kg/m3: 14981 kPa | 15031 kPa | 15083 kPa | 15135 kPa | 15288 kPa
964.3 ± 1.2 kg/m3: 14697 kPa | 14887 kPa | 14930 kPa
965.9 ± 1.2 kg/m3: 17238 kPa | 17302 kPa | 17367 kPa | 17434 kPa | 17468 kPa
966 ± 1.2 kg/m3: 17504 kPa
962.9 ± 1.2 kg/m3: 12241 kPa | 12340 kPa | 12402 kPa | 12533 kPa
963.5 ± 1.2 kg/m3: 13308 kPa | 13386 kPa | 13468 kPa | 13577 kPa
965.2 ± 1.2 kg/m3: 16062 kPa | 16117 kPa | 16261 kPa | 16288 kPa | 16319 kPa | 16349 kPa | 16465 kPa | 16496 kPa
961.4 ± 1.2 kg/m3: 9687 kPa | 9722.3 kPa | 9750.6 kPa | 9821.4 kPa | 9856.8 kPa
965.6 ± 1.2 kg/m3: 16875 kPa | 16908 kPa | 16952 kPa | 17016 kPa | 17044 kPa | 17078 kPa
963.4 ± 1.2 kg/m3: 13090 kPa | 13167 kPa | 13346 kPa
963.3 ± 1.2 kg/m3: 12947 kPa | 12985 kPa | 13022 kPa | 13059 kPa | 13128 kPa | 13200 kPa | 13240 kPa
961.3 ± 1.2 kg/m3: 9618.8 kPa | 9652.6 kPa | 9785.2 kPa
964.1 ± 1.2 kg/m3: 14240 kPa | 14286 kPa | 14332 kPa | 14371 kPa | 14417 kPa | 14464 kPa | 14551 kPa | 14598 kPa
961.7 ± 1.2 kg/m3: 10238 kPa | 10334 kPa | 10357 kPa | 10423 kPa | 10447 kPa | 10471 kPa
960.3 ± 1.2 kg/m3: 8013.8 kPa
961.8 ± 1.2 kg/m3: 10302 kPa | 10380 kPa | 10491 kPa | 10514 kPa
960.5 ± 1.2 kg/m3: 8194.2 kPa | 8272 kPa | 8310.6 kPa | 8341.7 kPa | 8372.2 kPa | 8402.7 kPa | 8428.6 kPa
964.7 ± 1.2 kg/m3: 15341 kPa | 15388 kPa | 15447 kPa
965.5 ± 1.2 kg/m3: 16737 kPa | 16798 kPa | 16853 kPa
965.8 ± 1.2 kg/m3: 17272 kPa | 17339 kPa | 17402 kPa
960.7 ± 1.2 kg/m3: 8458.8 kPa | 8521.4 kPa | 8548.1 kPa | 8580.2 kPa | 8612.1 kPa | 8643.8 kPa | 8736.1 kPa
964.8 ± 1.2 kg/m3: 15495 kPa | 15554 kPa
960.2 ± 1.2 kg/m3: 7739.3 kPa | 7769.3 kPa | 7836.8 kPa | 7874 kPa | 7943.2 kPa
961 ± 1.2 kg/m3: 9078.2 kPa | 9103.3 kPa | 9163.2 kPa | 9224.2 kPa | 9281.3 kPa
962.3 ± 1.2 kg/m3: 11285 kPa | 11313 kPa | 11337 kPa | 11393 kPa | 11422 kPa | 11475 kPa
960.9 ± 1.2 kg/m3: 8769.5 kPa | 8901.6 kPa | 8936.7 kPa | 8990.2 kPa | 9019.5 kPa | 9048.8 kPa
963.8 ± 1.2 kg/m3: 13941 kPa | 13985 kPa
963.1 ± 1.2 kg/m3: 12470 kPa | 12499 kPa | 12633 kPa | 12668 kPa | 12704 kPa | 12734 kPa | 12878 kPa
963.7 ± 1.2 kg/m3: 13501 kPa | 13611 kPa | 13693 kPa | 13813 kPa
963 ± 1.2 kg/m3: 12368 kPa | 12436 kPa | 12568 kPa | 12603 kPa
959.9 ± 1.2 kg/m3: 7422.6 kPa | 7449.6 kPa
962.7 ± 1.2 kg/m3: 11878 kPa | 11965 kPa | 11996 kPa | 12028 kPa | 12059 kPa
960.4 ± 1.2 kg/m3: 8160.1 kPa | 8236.1 kPa
964 ± 1.2 kg/m3: 14067 kPa | 14112 kPa | 14142 kPa | 14187 kPa
965.1 ± 1.2 kg/m3: 15952 kPa | 16008 kPa | 16032 kPa | 16092 kPa | 16148 kPa | 16173 kPa | 16205 kPa | 16230 kPa
962.6 ± 1.2 kg/m3: 11645 kPa | 11699 kPa | 11760 kPa | 11790 kPa | 11816 kPa | 11847 kPa | 11909 kPa | 11935 kPa
962.1 ± 1.2 kg/m3: 10852 kPa | 10878 kPa | 10924 kPa | 10950 kPa | 10975 kPa | 11075 kPa
965 ± 1.2 kg/m3: 15815 kPa | 15978 kPa
965.4 ± 1.2 kg/m3: 16407 kPa | 16586 kPa | 16613 kPa | 16645 kPa | 16672 kPa | 16764 kPa | 16825 kPa
962.2 ± 1.2 kg/m3: 10996 kPa | 11103 kPa | 11125 kPa | 11152 kPa | 11180 kPa | 11202 kPa | 11257 kPa
964.6 ± 1.2 kg/m3: 15179 kPa | 15234 kPa
965.3 ± 1.2 kg/m3: 16375 kPa | 16433 kPa | 16523 kPa | 16556 kPa | 16704 kPa
962.5 ± 1.2 kg/m3: 11587 kPa | 11616 kPa | 11669 kPa
